From the kinase profiling compilation of Christmann-Franck et al. (2016)

Legend:
Assay in all cases: KINOMEscan competition binding
Conditions in all cases: compound 10.0 µM
[1] = target: STK25 (human) (UniProt O00506)
[2] = target: CDK11B (human) (UniProt P21127)
[3] = target: PRKG2 (human) (UniProt Q13237)
[4] = target: CDKL3 (human) (UniProt Q8IVW4)
[5] = target: GSK3A (human) (UniProt P49840)
[6] = target: EGFR (human) (UniProt P00533)
[7] = target: TLK2 (human) (UniProt Q86UE8)
[8] = target: DCLK2 (human) (UniProt Q8N568)
[9] = target: PDPK1 (human) (UniProt O15530)
[10] = target: LATS2 (human) (UniProt Q9NRM7)
[11] = target: STK11 (human) (UniProt Q15831)
[12] = target: CDK14 (human) (UniProt O94921)
[13] = target: MAPK13 (human) (UniProt O15264)
[14] = target: ROCK2 (human) (UniProt O75116)
[15] = target: CDK18 (human) (UniProt Q07002)
[16] = target: EIF2AK1 (human) (UniProt Q9BQI3)
[17] = target: RPS6KA2 KD1 (human) (UniProt Q15349)
[18] = target: KDR (human) (UniProt P35968)
[19] = target: PIK3C2B (human) (UniProt O00750)
[20] = target: SRPK1 (human) (UniProt Q96SB4)
[21] = target: CSNK1A1 (human) (UniProt P48729)
[22] = target: PIK3CA (human) (UniProt P42336)
[23] = target: CSNK1G1 (human) (UniProt Q9HCP0)
[24] = target: CDK8 (human) (UniProt P49336)
[25] = target: CDC42BPB (human) (UniProt Q9Y5S2)
[26] = target: IKBKB (human) (UniProt O14920)
[27] = target: MKNK1 (human) (UniProt Q9BUB5)
[28] = target: MINK1 (human) (UniProt Q8N4C8)
[29] = target: STK38 (human) (UniProt Q15208)
[30] = target: STK38L (human) (UniProt Q9Y2H1)
[31] = target: CSNK1D (human) (UniProt P48730)
[32] = target: ULK2 (human) (UniProt Q8IYT8)
[33] = target: PRPF4B (human) (UniProt Q13523)
[34] = target: CIT (human) (UniProt O14578)
[35] = target: CDK16 (human) (UniProt Q00536)
[36] = target: LYN (human) (UniProt P07948)
[37] = target: CDKL2 (human) (UniProt Q92772)
[38] = target: MST1R (human) (UniProt Q04912)
[39] = target: PAK2 (human) (UniProt Q13177)
[40] = target: PAK3 (human) (UniProt O75914)

Chain of CSNK1A1 (human) (P48729 whole entry, looked up): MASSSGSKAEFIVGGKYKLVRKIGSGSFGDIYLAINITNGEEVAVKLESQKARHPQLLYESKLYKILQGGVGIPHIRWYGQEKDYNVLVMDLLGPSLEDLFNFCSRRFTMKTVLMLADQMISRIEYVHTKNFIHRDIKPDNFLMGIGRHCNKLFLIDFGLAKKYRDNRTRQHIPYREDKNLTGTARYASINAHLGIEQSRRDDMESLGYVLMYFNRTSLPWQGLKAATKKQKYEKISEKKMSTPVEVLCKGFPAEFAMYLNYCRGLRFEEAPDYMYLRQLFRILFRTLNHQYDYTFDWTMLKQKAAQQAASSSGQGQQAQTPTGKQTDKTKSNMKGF
Chain of ULK2 (human) (Q8IYT8 whole entry, looked up): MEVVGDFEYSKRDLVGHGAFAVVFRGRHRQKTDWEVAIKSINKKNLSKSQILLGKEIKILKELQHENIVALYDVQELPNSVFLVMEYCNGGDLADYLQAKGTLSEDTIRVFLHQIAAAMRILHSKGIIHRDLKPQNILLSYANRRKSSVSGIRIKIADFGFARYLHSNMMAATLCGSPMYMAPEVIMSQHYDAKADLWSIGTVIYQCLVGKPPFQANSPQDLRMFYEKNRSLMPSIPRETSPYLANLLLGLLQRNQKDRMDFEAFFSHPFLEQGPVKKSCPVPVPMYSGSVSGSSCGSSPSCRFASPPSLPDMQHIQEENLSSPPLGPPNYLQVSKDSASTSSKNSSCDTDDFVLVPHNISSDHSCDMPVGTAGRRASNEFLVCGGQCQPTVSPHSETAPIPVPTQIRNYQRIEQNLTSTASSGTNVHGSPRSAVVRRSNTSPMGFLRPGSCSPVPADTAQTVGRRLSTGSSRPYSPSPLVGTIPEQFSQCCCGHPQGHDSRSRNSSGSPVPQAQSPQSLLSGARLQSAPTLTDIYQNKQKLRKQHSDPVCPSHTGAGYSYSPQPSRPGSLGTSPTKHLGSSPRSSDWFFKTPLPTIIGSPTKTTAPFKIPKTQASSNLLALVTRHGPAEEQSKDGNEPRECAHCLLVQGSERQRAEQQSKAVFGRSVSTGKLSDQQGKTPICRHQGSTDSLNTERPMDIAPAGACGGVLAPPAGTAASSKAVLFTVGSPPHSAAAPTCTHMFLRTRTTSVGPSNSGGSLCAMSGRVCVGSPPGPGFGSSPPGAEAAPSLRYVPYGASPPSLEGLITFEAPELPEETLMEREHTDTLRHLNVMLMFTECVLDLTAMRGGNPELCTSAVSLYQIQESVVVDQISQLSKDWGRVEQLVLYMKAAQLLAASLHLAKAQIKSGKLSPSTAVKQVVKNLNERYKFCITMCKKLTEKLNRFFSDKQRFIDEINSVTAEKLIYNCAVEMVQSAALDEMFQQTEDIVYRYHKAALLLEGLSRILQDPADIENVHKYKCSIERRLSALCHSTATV
Chain of PDPK1 (human) (O15530 whole entry, looked up): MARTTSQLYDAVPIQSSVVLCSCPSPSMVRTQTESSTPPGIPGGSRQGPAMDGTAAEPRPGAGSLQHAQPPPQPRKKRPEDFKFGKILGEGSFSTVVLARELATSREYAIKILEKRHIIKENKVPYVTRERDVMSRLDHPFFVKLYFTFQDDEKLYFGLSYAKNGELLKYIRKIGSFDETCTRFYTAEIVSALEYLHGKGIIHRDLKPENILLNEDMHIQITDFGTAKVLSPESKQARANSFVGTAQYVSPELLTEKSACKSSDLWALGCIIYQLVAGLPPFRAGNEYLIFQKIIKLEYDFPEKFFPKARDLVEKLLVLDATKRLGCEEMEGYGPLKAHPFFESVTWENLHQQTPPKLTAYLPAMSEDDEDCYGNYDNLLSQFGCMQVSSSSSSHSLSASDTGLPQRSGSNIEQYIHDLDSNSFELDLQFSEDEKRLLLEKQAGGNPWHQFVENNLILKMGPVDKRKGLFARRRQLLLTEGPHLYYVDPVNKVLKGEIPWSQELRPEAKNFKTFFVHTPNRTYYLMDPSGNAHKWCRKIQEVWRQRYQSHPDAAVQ
Chain of ROCK2 (human) (O75116 whole entry, looked up): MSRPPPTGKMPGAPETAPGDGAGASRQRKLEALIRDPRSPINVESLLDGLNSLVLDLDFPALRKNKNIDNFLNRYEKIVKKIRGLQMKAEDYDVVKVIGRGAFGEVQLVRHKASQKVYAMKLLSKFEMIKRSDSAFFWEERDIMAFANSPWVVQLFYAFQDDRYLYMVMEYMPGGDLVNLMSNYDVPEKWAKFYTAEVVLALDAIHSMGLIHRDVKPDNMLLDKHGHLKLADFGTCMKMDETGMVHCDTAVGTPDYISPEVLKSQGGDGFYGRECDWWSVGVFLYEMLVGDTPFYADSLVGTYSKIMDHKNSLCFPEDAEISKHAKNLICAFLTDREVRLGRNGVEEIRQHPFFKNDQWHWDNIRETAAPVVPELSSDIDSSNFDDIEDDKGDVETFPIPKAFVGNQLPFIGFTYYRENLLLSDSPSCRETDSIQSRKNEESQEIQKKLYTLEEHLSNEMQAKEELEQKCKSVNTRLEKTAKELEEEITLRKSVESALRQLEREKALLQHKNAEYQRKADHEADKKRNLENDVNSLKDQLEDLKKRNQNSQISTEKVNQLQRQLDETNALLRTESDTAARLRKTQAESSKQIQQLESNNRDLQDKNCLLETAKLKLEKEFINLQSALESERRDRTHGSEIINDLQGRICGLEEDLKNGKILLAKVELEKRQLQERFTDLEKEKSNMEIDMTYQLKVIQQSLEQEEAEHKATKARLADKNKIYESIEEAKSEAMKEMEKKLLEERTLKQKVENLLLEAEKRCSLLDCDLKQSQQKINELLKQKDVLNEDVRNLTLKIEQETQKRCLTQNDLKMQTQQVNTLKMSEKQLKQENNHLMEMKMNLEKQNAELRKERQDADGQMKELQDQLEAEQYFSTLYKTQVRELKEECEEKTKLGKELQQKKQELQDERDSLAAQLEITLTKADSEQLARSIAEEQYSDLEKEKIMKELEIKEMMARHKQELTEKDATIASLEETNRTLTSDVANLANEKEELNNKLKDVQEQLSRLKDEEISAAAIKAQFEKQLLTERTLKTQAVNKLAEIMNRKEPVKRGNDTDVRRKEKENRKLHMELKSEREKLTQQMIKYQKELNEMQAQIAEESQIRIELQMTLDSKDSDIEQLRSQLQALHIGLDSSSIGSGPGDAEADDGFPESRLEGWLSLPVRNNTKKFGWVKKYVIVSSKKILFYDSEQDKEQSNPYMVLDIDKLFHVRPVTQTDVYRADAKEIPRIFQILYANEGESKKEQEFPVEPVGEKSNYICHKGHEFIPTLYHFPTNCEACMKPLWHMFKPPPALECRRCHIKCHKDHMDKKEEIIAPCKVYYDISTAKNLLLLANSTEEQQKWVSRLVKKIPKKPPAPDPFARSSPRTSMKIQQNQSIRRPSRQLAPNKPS
Chain of EIF2AK1 (human) (Q9BQI3 whole entry, looked up): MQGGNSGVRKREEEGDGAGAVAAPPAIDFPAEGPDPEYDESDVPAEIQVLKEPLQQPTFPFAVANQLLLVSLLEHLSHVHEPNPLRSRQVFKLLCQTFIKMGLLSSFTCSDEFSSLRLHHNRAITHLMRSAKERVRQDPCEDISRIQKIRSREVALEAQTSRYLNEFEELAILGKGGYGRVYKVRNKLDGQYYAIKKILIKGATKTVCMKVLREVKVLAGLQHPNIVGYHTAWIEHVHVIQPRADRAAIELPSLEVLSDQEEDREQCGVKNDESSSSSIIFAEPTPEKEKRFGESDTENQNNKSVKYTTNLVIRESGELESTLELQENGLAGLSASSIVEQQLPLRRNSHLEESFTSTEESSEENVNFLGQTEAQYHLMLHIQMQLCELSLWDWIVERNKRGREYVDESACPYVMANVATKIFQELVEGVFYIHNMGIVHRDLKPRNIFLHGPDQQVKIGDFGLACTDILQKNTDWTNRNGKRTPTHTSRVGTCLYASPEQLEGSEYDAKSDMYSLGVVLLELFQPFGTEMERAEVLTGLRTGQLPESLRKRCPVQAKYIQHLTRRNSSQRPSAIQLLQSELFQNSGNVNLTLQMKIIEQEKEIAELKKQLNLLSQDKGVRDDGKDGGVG
Chain of LYN (human) (P07948 whole entry, looked up): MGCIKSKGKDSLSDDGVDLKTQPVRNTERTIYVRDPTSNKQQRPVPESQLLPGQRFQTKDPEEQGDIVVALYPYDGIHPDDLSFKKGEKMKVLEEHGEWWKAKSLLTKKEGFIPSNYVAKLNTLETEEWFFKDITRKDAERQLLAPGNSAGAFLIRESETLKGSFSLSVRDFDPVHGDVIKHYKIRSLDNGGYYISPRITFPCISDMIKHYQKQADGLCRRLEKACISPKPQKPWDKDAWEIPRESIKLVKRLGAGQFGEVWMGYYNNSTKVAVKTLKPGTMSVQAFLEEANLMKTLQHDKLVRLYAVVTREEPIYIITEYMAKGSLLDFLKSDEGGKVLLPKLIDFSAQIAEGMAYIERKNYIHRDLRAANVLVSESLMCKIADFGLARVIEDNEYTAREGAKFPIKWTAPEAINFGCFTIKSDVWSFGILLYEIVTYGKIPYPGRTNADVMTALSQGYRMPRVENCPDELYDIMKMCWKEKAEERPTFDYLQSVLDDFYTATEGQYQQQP
Chain of CDK16 (human) (Q00536 whole entry, looked up): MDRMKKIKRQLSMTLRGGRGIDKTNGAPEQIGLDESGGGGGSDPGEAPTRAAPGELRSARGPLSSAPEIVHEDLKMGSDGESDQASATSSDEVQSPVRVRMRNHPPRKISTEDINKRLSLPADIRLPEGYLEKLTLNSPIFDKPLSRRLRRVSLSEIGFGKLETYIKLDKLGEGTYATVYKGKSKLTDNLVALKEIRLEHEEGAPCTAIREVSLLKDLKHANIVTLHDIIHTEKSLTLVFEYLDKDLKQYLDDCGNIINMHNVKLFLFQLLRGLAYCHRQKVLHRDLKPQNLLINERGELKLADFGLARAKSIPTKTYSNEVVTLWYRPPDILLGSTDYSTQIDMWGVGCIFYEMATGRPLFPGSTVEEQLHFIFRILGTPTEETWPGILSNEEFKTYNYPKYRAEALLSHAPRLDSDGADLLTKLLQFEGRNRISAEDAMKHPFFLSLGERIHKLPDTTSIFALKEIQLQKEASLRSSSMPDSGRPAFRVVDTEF

| SMILES | kinase still bound, per cent of control [1] | kinase still bound, per cent of control [2] | kinase still bound, per cent of control [3] | kinase still bound, per cent of control [4] | kinase still bound, per cent of control [5] | kinase still bound, per cent of control [6] | kinase still bound, per cent of control [7] | kinase still bound, per cent of control [8] | kinase still bound, per cent of control [9] | kinase still bound, per cent of control [10] | kinase still bound, per cent of control [11] | kinase still bound, per cent of control [12] | kinase still bound, per cent of control [13] | kinase still bound, per cent of control [14] | kinase still bound, per cent of control [15] | kinase still bound, per cent of control [16] | kinase still bound, per cent of control [17] | kinase still bound, per cent of control [18] | kinase still bound, per cent of control [19] | kinase still bound, per cent of control [20] | further results |
| --- | --- | --- | --- | --- | --- | --- | --- | --- | --- | --- | --- | --- | --- | --- | --- | --- | --- | --- | --- | --- | --- |
| CN(C)C/C=C/C(=O)Nc1ccc(C(=O)Nc2cccc(Nc3nccc(-c4cccnc4)n3)c2)cc1 | 83% | 91% | 76% | 20% | 26% | 100% | 100% | 100% | 100% | 86% | 83% | 98% | 100% | 41% | 95% | 100% | 83% | 36% | 100% | 26% | kinase still bound, per cent of control [21]: 27%; kinase still bound, per cent of control [22]: 100%; kinase still bound, per cent of control [23]: 0.5%; kinase still bound, per cent of control [24]: 78%; kinase still bound, per cent of control [25]: 100%; kinase still bound, per cent of control [26]: 65%; kinase still bound, per cent of control [27]: 42%; kinase still bound, per cent of control [28]: 50%; kinase still bound, per cent of control [29]: 90%; kinase still bound, per cent of control [30]: 100%; kinase still bound, per cent of control [31]: 20%; kinase still bound, per cent of control [32]: 99%; kinase still bound, per cent of control [33]: 100%; kinase still bound, per cent of control [34]: 38%; kinase still bound, per cent of control [35]: 91%; kinase still bound, per cent of control [36]: 100%; kinase still bound, per cent of control [37]: 33%; kinase still bound, per cent of control [38]: 100%; kinase still bound, per cent of control [39]: 76%; kinase still bound, per cent of control [40]: 100% |
| COc1cc(C(=O)N2CCC(N3CCN(C)CC3)CC2)ccc1Nc1ncc2c(n1)N(C)c1ccccc1C(=O)N2C | 68% | 84% | 74% | 83% | 100% | 84% | 99% | 0.45% | 100% | 95% | 96% | 81% | 72% | 87% | 100% | 100% | 83% | 84% | 100% | 94% | kinase still bound, per cent of control [21]: 100%; kinase still bound, per cent of control [22]: 74%; kinase still bound, per cent of control [23]: 100%; kinase still bound, per cent of control [24]: 100%; kinase still bound, per cent of control [25]: 100%; kinase still bound, per cent of control [26]: 89%; kinase still bound, per cent of control [27]: 50%; kinase still bound, per cent of control [28]: 77%; kinase still bound, per cent of control [29]: 96%; kinase still bound, per cent of control [30]: 100%; kinase still bound, per cent of control [31]: 81%; kinase still bound, per cent of control [32]: 67%; kinase still bound, per cent of control [33]: 93%; kinase still bound, per cent of control [34]: 99%; kinase still bound, per cent of control [35]: 96%; kinase still bound, per cent of control [36]: 100%; kinase still bound, per cent of control [37]: 100%; kinase still bound, per cent of control [38]: 98%; kinase still bound, per cent of control [39]: 65%; kinase still bound, per cent of control [40]: 83% |
